Results on one compound are retold here after patent US10258040B2, “Use of combinations comprising host defense inducers and biological control agents for controlling bacterial harmful organisms in useful plants” (Bayer CropScience Aktiengesellschaft, priority 2013, dated 2019).

The subject of experiment [1] is Pseudomonas syringae pv. tomato. Kind of experiment: in vivo preventive test on Pseudomonas syringae pv. tomato (tomatoes). To be noted: sprayed one week before inoculation, evaluated 1 week after inoculation. On the procedure:
When the percentage of inhibition observed for the combination is greater than E, there is a synergistic effect. • Solvent: deionized water • tested compounds: […] To test for preventive activity, young plants are sprayed with the prepared compounds at three different rates of application. One week after application, the plants are inoculated with an aqueous suspension of Pseudomonas syringae pv. tomato. Inoculated plants are placed in a greenhouse chamber at 25° C. at a relative atmospheric humidity of 90%.

The test system of another experiment is Potato. Nature of the experiment: potato field seed/soil treatment test: plant and stem number, tuber weight, tuber grading. To be noted: T2: dose 12/100 kg seed, ST.
A further experiment concerns Streptomyces scabies. Kind of experiment: in vivo preventive (seed growth test) test on Streptomyces scabies (potato), scab efficacy at harvest. To be noted: T2: dose 12/100 kg seed, ST, natural field conditions.

Procedure for Streptomyces scabies: • Solvent: water • Tested compounds: Isotianil (FS200 formulation) at 30/24/12 ml/100 KG Potato Seed • Penflufen (Emesto FS240 formulation) at 10 ml/100 KG Potato Seed • Serenade ASO (Bacillus subtilis QST 713 strain/SC/1.34%) 5 Litres/ha (200 ml/area sown under 100 KG Seed)
To test for seed (tuber) treatment activity mixtures of Isotianil FS200 and Serenade ASO SC in combination with an optional further fungicide, ie Potato tubers are selected having reasonable Streptomyces scabies infestation. Seed was treated by spray on the tubers with hand knapsack sprayer using total volume of slurry 1500 ml/100 Kg Seed. Seed treatment was done with Isotianil FS 200 alone and in tank-mix with Penflufen.
Serenade ASO SC 1.34% @ 5000 ml/ha of formulated product was sprayed in the furrows just before the sowing of seeds. 100 KG seeds are sown on an area of 400 m^2 and Serenade ASO @ 200 ml formulated product was used in this test. Seed treated with Isotianil and optional Penflufen as method described above was used in combination with soil application of Serenade ASO in furrows before sowing. This study was conducted in natural field conditions chamber and observations for Streptomyces scabies infestation on potato was taken at the time of harvest.
The test is evaluated at harvest of potato crop.

Consider `N#Cc1ccccc1NC(=O)c1snc(Cl)c1Cl` [(A.2) Isotianil, isotianil], for which the “Efficacy in % found” value in experiment [1] (application rate 50 g a.i.) turned out to be 6%. Moreover, the “Efficacy in % found” value in experiment [1] (application rate 100 g a.i.) came out at 0%. Further, the “Efficacy in % found” value in experiment [1] (application rate 200 g a.i.) is on record as 0%. For the same compound, in the experiment with Potato (potato tubers at harvest), the “% age Grading Large” value turned out to be 34%, the “% age Grading Small” value was 29% and the “% age Grading medium” value was 37%. For the same compound, in the experiment on Potato (potato, field), the “% age increase/dicrease over conrol, No. of Plants/5 meter” value was 3%; the “% age increase/dicrease over conrol, No. of stems/meter” value is reported as 7%; the “% age increase/dicrease over conrol, Weight of tuber/5 meter” value stood at 11%. For the same compound, the “% age Efficacy Scab” value with Streptomyces scabies came to 68%.
